This is an account of results in patent US11524014B2, “Pharmaceutical formulations and systems for delivery of an androgenic agent and an aromatase inhibitor with sustained multi-phasic release profiles and methods of use” (Havah Therapeutics Pty Ltd., priority 2019, dated 2022).

Values joined by “and” are separate entries in the source; they are usually repeats but may differ in a detail not shown here. Equal values may be shown once. Read-outs that look alike come from different tables or passages of the source.

The nature of data set [1]: clinical. To be noted: female, human, in vivo; for half-life: t1/2, arithmetic mean (terminal half-life).
Procedure: Pre-menopausal women with high Mammographic Breast Density (MBD) was selected for the study. Following the successful screening, participants came to the Wellend Clinic South Australia for dosing. The participants were to be dosed while in the luteal phase of their menstrual cycle to avoid the highly changing hormonal environment of the follicular phase. Following insertion of the implant, PK blood sampling was carried out for a duration of three months. Briefly, samples were taken repeatedly on the day of dosing, daily during the first week, weekly for the next four weeks and every second week during the last eight weeks, for a total sampling period of three months. After assessments had been completed on the last day of assessments, Day 85, the trial concluded.
The sampling schedule was revised with the addition of one blood sample (at 6 hours post-dose), and no adjustment of the timing of existing time points. The duration of sampling was not extended.
In summary, following dosing on Day 1, blood samples were taken pre-dose (within one hour of dosing) and at 1, 2, 4, 6, 8 and 12 hours. Participants returned for a blood sample to be taken at 9 am in the morning on Days 2, 3, 4, 5, 8, 15, 22, 29, 43, 57, 71 and 85.
A total of 11 subjects were dosed and included in the safety analysis set. Eleven subjects were included in the PK analysis set. Women were aged between 35 and 55 years of age, Body Mass Index (BMI) range of 20-30 kg/m^2.
For data set [2] the following is noted: oral anastrozole; cited from earlier work.
Data set [3] can be described thus: Population pharmacokinetic modelling of anastrozole from the Example 1 trial. The data set is classed as in vivo, human. The procedure:
Data in these figures are presented as mean+/−standard deviation. […] The percentage change from baseline was calculated for the average volume and plotted against time in months. […] In FIG. 8A, the data on the X axis is plotted in time (hours) after transplantation. In FIG. 8B the X axis is on a log scale. In FIGS. 8A-B, the open circles equal observed data, the black line equals median PK profile, and the dashed dark grey line equals lower limit of quantification (0.1 ng/mL).
One and two compartment models were fitted to the data. Several absorption models were tested such as first and zero order, mixed order, as well as transit compartments. Model selection was performed on the basis of statistical criteria (objective function) as well as visual inspection of diagnostic plots. […] Between-subject variability (BSV) was included on apparent clearance (CL/F), apparent volume of distribution for the central compartment (Vc/F) and the first-order absorption rate constant (KA). A proportional error model was used to describe residual unexplained variability (RUV).

Data set [4] relates to IL-6. The note with it: female breast cells treated with testosterone (Guhl, 2012); cited from earlier work.
[5] abbreviates: two-compartment model with dual input, T+Ai implant, n=11.

For orientation: Tmax means the time at which the peak concentration occurs. As to `C[C@]12CCC(=O)C[C@@H]1CC[C@@H]1[C@@H]2CC[C@]2(C)[C@@H](O)CC[C@@H]12` [dihydrotestosterone, 5 alpha dihydrotestosterone], in data set [1] (Tmax post-dose, serum dihydrotestosterone, participants with measurable maximal values), the Tmax is 48 to 72 h. In addition, the serum level measurability result (serum dihydrotestosterone after single s.c. T+Ai implant) is “not measurable in most samples”.
Usually half-life stands for how long it takes for the measured level to halve. For the compound `CC(C)(C#N)c1cc(Cn2cncn2)cc(C(C)(C)C#N)c1` [Anastrozole, 2,2′-[5-(1H-1,2,4-triazol-1-ylmethyl)-1,3-phenylene]bis(2-methylpropanenitrile)], the concentration at 12 weeks in data set [1] is < 0.1 ng/mL. In data set [1] (sc, Tmax, median, single s.c. T+Ai implant 80 mg/4 mg, women, n=11, anastrozole in plasma, testosterone in serum), the Tmax turned out to be 48.6 h. The Tmax in data set [1] (sc, median Tmax post-dose, plasma anastrozole after single s.c. T+Ai implant, range 1-3 days) was 48 h. The half-life in data set [1] (sc) is 336 h. Also, the half-life in data set [2] is 48 h. The “Fraction absorbed via second input” value in data set [3] (fixed in the model (FIX)) is 0.5 FIX. In data set [3] (setting [5]), the “Absorbtion rate constant (ka) first input, estimated value (% RSE)” value is 0.119 (20.6) /hr; the “Absorbtion rate constant (ka) second input, estimated value (% RSE)” value is given as 0.148 (20.5) /hr; the “Apparent central volume of distribution (Vc/F), estimated value (% RSE)” value is 672 (3.0) L; the “Apparent clearance (CL/F), estimated value (% RSE)” value was 1.77 L/hr and 1.77 (6.9) L/hr. Further, in data set [3] (setting [5]), the “Apparent peripheral volume of distribution (Vp/F), estimated value (% RSE)” value was 106 (29.8) L; the “Inter-compartmental clearance (Q/F), estimated value (% RSE)” value was 0.97 (57.7) L/hr; the “Lagged time for second input, estimated value (% RSE)” value is given as 3.77 (9.7) h. Further, the “t1/2, arithmetic mean (terminal half-life)” value (female, human, in vivo, sc) was 326 h. For the same compound, the “CL/F, arithmetic mean (NCA)” value (human, in vivo, sc) amounted to 1.88 L/h.
One may read the Cmax as the highest concentration seen after dosing. Turning to `C[C@]12CC[C@H]3[C@@H](CCC4=CC(=O)CC[C@@]43C)[C@@H]1CC[C@@H]2O` [Testosterone, testosterone], in data set [4], the “reduction of IL-6 levels” value is 53%. Moreover, the Tmax in data set [1] (sc) is 8 h. Also, the Cmax in data set [1] (sc, Cmax, arithmetic mean, single s.c. T+Ai implant 80 mg/4 mg, women, n=11, anastrozole in plasma, testosterone in serum) turned out to be 4.1 ng/mL. In data set [1] (sc, single s.c. T+Ai implant 80 mg/4 mg, women, n=11, anastrozole in plasma, testosterone in serum), this compound had a half-life of 1030 h. The “time of second lower serum peak” value (serum testosterone after single s.c. T+Ai implant) is recorded as 2-3 weeks. Further, the “Cmax, arithmetic mean” value (single s.c. T+Ai implant 80 mg/4 mg, women, n=11, anastrozole in plasma, testosterone in serum) turned out to be 4.08 ng/mL.
